Values of other authors as cited in US20250302750A1, “PHARMACEUTICAL COMPOSITION OF BEMPEDOIC ACID” (Renata Pharmaceuticals (Ireland) Ltd, priority 2022, published 2025).

How the values were obtained:
[1] = solid state; per US 20180338922

## CC(C)(CCCCCC(O)CCCCCC(C)(C)C(=O)O)C(=O)O [Bempedoic acid]
[1]
  Flow characteristics: poor flow characteristics
  Stickiness: very sticky
other
  Solubility in water: poorly soluble
